Measurements reported in BigSolDB 2.1.

N=C(N)N.O=[N+]([O-])O
Conditions | solubility (mole fraction)
in acetone, 278.15 K | 0.0003
in acetone, 283.15 K | 0.0005
in acetone, 288.15 K | 0.0009
in acetone, 293.15 K | 0.0016
in acetone, 298.15 K | 0.0029
in acetone, 303.15 K | 0.0052
in acetone, 308.15 K | 0.0092
in acetone, 313.15 K | 0.0158
in acetone, 323.15 K | 0.0503
in ethanol, 278.05 K | 0.003
in ethanol, 283.15 K | 0.0037
in ethanol, 288.35 K | 0.0043
in ethanol, 293.15 K | 0.0051
in ethanol, 298.25 K | 0.0062
in ethanol, 303.25 K | 0.007
in ethanol, 308.25 K | 0.0081
in ethanol, 313.05 K | 0.0094
in ethanol, 318.05 K | 0.0108
in ethanol, 323.25 K | 0.0124
in ethanol, 328.35 K | 0.0143
in methanol, 278.25 K | 0.0063
in methanol, 283.25 K | 0.0075
in methanol, 288.25 K | 0.0092
in methanol, 293.25 K | 0.0107
in methanol, 298.35 K | 0.0126
in methanol, 303.15 K | 0.0148
in methanol, 308.35 K | 0.0174
in methanol, 313.15 K | 0.0198
in methanol, 318.25 K | 0.0227
in methanol, 323.35 K | 0.0264
in methanol, 328.05 K | 0.0305
in n-propanol, 278.25 K | 0.0009
in n-propanol, 283.25 K | 0.0013
in n-propanol, 288.25 K | 0.0017
in n-propanol, 293.15 K | 0.002
in n-propanol, 298.35 K | 0.0029
in n-propanol, 303.15 K | 0.0041
in n-propanol, 308.35 K | 0.0048
in n-propanol, 313.15 K | 0.0061
in n-propanol, 318.25 K | 0.0077
in n-propanol, 323.15 K | 0.0092
in n-propanol, 328.05 K | 0.012
in water, 278.25 K | 0.009
in water, 283.35 K | 0.0112
in water, 288.25 K | 0.0136
in water, 292.95 K | 0.0157
in water, 298.25 K | 0.019
in water, 303.15 K | 0.0222
in water, 308.35 K | 0.0262
in water, 313.05 K | 0.0302
in water, 318.25 K | 0.0349
in water, 323.25 K | 0.0401
in water, 328.35 K | 0.0463
in water, 332.85 K | 0.0511
